Values after ≈ are worked out from the molar mass of the structure shown. Non-standard residues stand in square brackets, D forms with d. Residues, ends and D or L forms follow the SMILES beside them.
How the values were obtained:
S. aureus = test system: S. aureus; parameters: method as in ref 17 (Manabe et al.); settings: ref 17 (Manabe et al.); cited from earlier work
[1] = test system: clinical Salmonella isolates; parameters: method as in PMID 34361810; settings: cited from earlier work
[2] = test system: S. aureus ATCC25923 and MRSA-1 strains; assay: Catheter-associated biofilm infection mouse model; format: in vivo, Staphylococcus aureus; settings: Balb/c mice, 5 days; for reduction of biofilm formation on catheters (crystal-violet assay): ATCC 25923; for reduction of biofilm on catheters (crystal-violet assay): MRSA
Experimental: All animal experiments were performed in accordance with the protocols approved by the Animal Ethics Committee of Ahvaz Jundishapur University of Medical Sciences (Application No. IR.AJUMS.ABHC.REC.1400.014). Female Balb/c mice (Laboratory Animal Reproduction and Maintenance Center Ahvaz Jundishapur University Ahvaz, Iran) were housed one mouse per cage, under sanitary conditions at 22–25 °C and at 12 h light/dark cycles, with access to sanitized pellet food and water. Prior to each experiment, mice were acclimated to room conditions for 1 week. To increase the experimental accuracy, the cages were disinfected with a povidone-iodine solution of 10%, and the bedding materials were autoclaved, and replaced every day.
In this study, eight groups (five mice per group) of 12-week-old female Balb/c mice were obtained from the Pasture Institute of Iran (Tehran, Iran). Three groups were used to investigate the effect of three concentrations of mKLK against ATCC25923 strain, three groups for three concentrations of mKLK against MRSA, and two groups for control). Mice were anesthetized by injection of ketamine 10% and xylazine 2% (in a ratio of 3 to 1). To create a subcutaneous pocket to place three 1-cm-long polyurethane catheters, a small incision was made. Three catheters were subcutaneously implanted on the lower back of mice. Following implantation of the catheters, injection of bacterial suspension and then mKLK peptide was performed into the subcutaneous pocket. […] In addition, PBS was injected alone into animals as a control group without contamination to evaluate the sterility of the surgical procedure. The incision was closed with Vetbond. Tissue adhesive (Kimiatajhiz teb, Iran) and cleansed with 10% PI solution. After 5 days, all mice were euthanized with CO2, and the catheters were removed. Subsequently, catheter-associated biofilms were evaluated using the CFU counting method, crystal violet assay, and SEM.
The biofilm mass attached to the catheter surface was measured using a colorimetric assay (crystal violet). After removing the catheters from the mouse skin and double washing with PBS, each catheter was placed in wells of a 24-well microtiter plate, and absolute methanol was added to fix the biofilm to the catheter surface. Then, the methanol was discarded and the catheters were dried at room temperature. After staining with crystal violet 0.1% for 5 min at room temperature, the dye was discarded and the catheters were washed with PBS. Then, 33% acetic acid was added to each well to release the absorbed dye. […] To enumerate biofilm cells, catheters were removed, transferred to sterile tubes, vortexed, and sonicated. Bacterial numbers were determined by serial diluting and plating on TSA[56].

Row | SMILES | MIC (S. aureus) [µg/mL] | MIC [1] [µM] | reduction of biofilm formation on catheters (crystal-violet assay) ([2]; 1/2× MIC) [%] | reduction of biofilm formation on catheters (crystal-violet assay) ([2]; 1/4×MIC) [%] | reduction of biofilm formation on catheters (crystal-violet assay) ([2]; 1 × MIC) [%] | reduction of biofilm on catheters (crystal-violet assay) ([2]; 1/2× MIC) [%] | reduction of biofilm on catheters (crystal-violet assay) ([2]; 1/4× MIC) [%] | reduction of biofilm on catheters (crystal-violet assay) ([2]; 1× MIC) [%]
1 | CC(C)C[C@@H](NC(=O)[C@H](N)CCCCN)C(=O)N[C@H](CCCCN)C(=O)N[C@H](CC(C)C)C(=O)N[C@H](CC(C)C)C(=O)N[C@H](CC(C)C)C(=O)N[C@H](CC(C)C)C(=O)N[C@H](CC(C)C)C(=O)N[C@H](CCCCN)C(=O)N[C@H](CC(C)C)C(=O)N[C@H](CCCCN)C(N)=O [KLK] (H-[dK][dL][dK][dL][dL][dL][dL][dL][dK][dL][dK]-NH2; N-terminus assumed) | 4 (≈ 3.03 µM) | > 256 | – | – | – | – | – | –
2 | CC(C)C[C@@H](NC(=O)[C@H](N)Cc1c[nH]c2ccccc12)C(=O)N[C@H](Cc1c[nH]c2ccccc12)C(=O)N[C@H](C)C(=O)N[C@H](CC(C)C)C(=O)N[C@H](CC(C)C)C(=O)N[C@H](CCCCN)C(=O)N[C@H](CC(C)C)C(=O)N[C@H](CC(C)C)C(=O)N[C@H](CCCCN)C(=O)N[C@H](CC(C)C)C(=O)N[C@H](CCCCN)C(N)=O [mKLK] (H-[dW][dL][dW][dA][dL][dL][dK][dL][dL][dK][dL][dK]-NH2; N-terminus assumed) | – | – | 62 | 36 | 72 | 58 | 27 | 73

From PMC10817945, “Design of a novel analogue peptide with potent antibiofilm activities against Staphylococcus aureus based upon a sapecin B-derived peptide” (Scientific Reports, 2024)
